In ChEMBL document CHEMBL1201862, “PubChem BioAssay data set” (2004):
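A five-concentration, 48-hour dose response in 96-well plates underlies each endpoint, interpolated linearly between surrounding concentrations. GI50: concentration for 50% inhibition of growth.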 Active and inactive are the calls of the source. Rule as the data show it: active = GI50 up to about 1.1 µM and inactive = higher.

Legend:
Assay in all cases: NCI tumour cell line growth inhibition, 48 h
NCI-H522 = system: NCI-H522
NCI-H460 = system: NCI-H460
OVCAR-8 = system: OVCAR-8
HOP-92 = system: HOP-92
SF-268 = system: SF-268
MOLT-4 = system: MOLT-4
RPMI-8226 = system: RPMI-8226
SK-MEL-28 = system: SK-MEL-28
EKVX = system: EKVX
A549 = system: A549
SN12C = system: SN12C
A498 = system: A498
OVCAR-4 = system: OVCAR-4
CAKI-1 = system: CAKI-1
KM12 = system: KM12
SK-MEL-5 = system: SK-MEL-5
SR = system: SR
HT-29 = system: HT-29

SMILES | GI50 (NCI-H522) | GI50 (NCI-H460) | GI50 (OVCAR-8) | GI50 (HOP-92) | GI50 (SF-268) | GI50 (MOLT-4) | GI50 (RPMI-8226) | GI50 (SK-MEL-28) | GI50 (EKVX) | GI50 (A549) | GI50 (SN12C) | GI50 (A498) | GI50 (OVCAR-4) | GI50 (CAKI-1) | GI50 (KM12) | GI50 (SK-MEL-5) | GI50 (SR) | GI50 (HT-29)
Cc1n[nH]c(=S)n(C)c1=S | > 100 µM (inactive) | > 100 µM (inactive) | > 100 µM (inactive) | 91.2 µM (inactive) | > 100 µM (inactive) | > 100 µM (inactive) | > 100 µM (inactive) | > 100 µM (inactive) | 56.1 µM (inactive) | > 100 µM (inactive) | > 100 µM (inactive) | > 100 µM (inactive) | > 100 µM (inactive) | – | – | – | – | –
CN(C)C(=S)/N=c1\ssc(=S)n1Cc1ccncc1 | 1.49 µM (inactive) | 13.8 µM (inactive) | 23.1 µM (inactive) | – | 24.3 µM (inactive) | 14 µM (inactive) | – | 35.1 µM (inactive) | 22.8 µM (inactive) | 33.3 µM (inactive) | > 100 µM (inactive) | 36.2 µM (inactive) | 20 µM (inactive) | 18.9 µM (inactive) | 4.79 µM (inactive) | 4.78 µM (inactive) | 6.28 µM (inactive) | –
COc1cc([C@@H]2c3cc4c(cc3[C@@H](NC(=O)c3ccc([N+](=O)[O-])cc3)C3COC(=O)[C@@H]32)OCO4)cc(OC)c1O (some centres undefined) | 0.508 µM (active) | < 0.01 µM (active) | 0.923 µM (active) | 0.7 µM (active) | 1.6 µM (inactive) | < 0.01 µM (active) | 0.256 µM (active) | 1.97 µM (inactive) | 0.975 µM (active) | 0.0189 µM (active) | 0.215 µM (active) | 1.28 µM (inactive) | 8.04 µM (inactive) | 0.569 µM (active) | 1.08 µM (active) | 0.361 µM (active) | – | 1.58 µM (inactive)
COc1ccc(N2C(=O)C3CC(c4ccc(Br)cc4)c4c([nH]c5ccccc45)C3C2=O)cc1 (centres undefined) | – | 4.92 µM (inactive) | 2.13 µM (inactive) | 12.3 µM (inactive) | 6.78 µM (inactive) | 10.8 µM (inactive) | 26.7 µM (inactive) | 11.5 µM (inactive) | 16.9 µM (inactive) | 2.71 µM (inactive) | 3.93 µM (inactive) | 9.59 µM (inactive) | 3.25 µM (inactive) | 15.1 µM (inactive) | 13.1 µM (inactive) | 16.5 µM (inactive) | – | 13.2 µM (inactive)
CN(C)CCC(/C=C/c1ccccc1)=N\Nc1ccc(Cl)cc1Cl | 15.3 µM (inactive) | 13.8 µM (inactive) | 16.3 µM (inactive) | – | 12.2 µM (inactive) | 10.9 µM (inactive) | 11.7 µM (inactive) | 14.3 µM (inactive) | 15 µM (inactive) | 15.6 µM (inactive) | 11.1 µM (inactive) | 16.6 µM (inactive) | 14.7 µM (inactive) | – | 15.1 µM (inactive) | 13.4 µM (inactive) | 7.57 µM (inactive) | 14.2 µM (inactive)
NC1=NN(c2ccccc2)C(=O)C1/C(=N\NC(=O)c1cc2ccccc2cc1O)C(=O)Nc1ccc(Cl)cc1 (centres undefined) | 20.4 µM (inactive) | 13.5 µM (inactive) | 20.8 µM (inactive) | 23.1 µM (inactive) | 12.7 µM (inactive) | 6.78 µM (inactive) | 22.6 µM (inactive) | 25.1 µM (inactive) | 22.8 µM (inactive) | 44.5 µM (inactive) | 36.8 µM (inactive) | 24.2 µM (inactive) | 18.5 µM (inactive) | 31 µM (inactive) | 27.9 µM (inactive) | 24.7 µM (inactive) | – | 42.5 µM (inactive)
CCCCc1c2c([n+]([O-])c3c1CCCC3)CCCC2 | 2 µM (inactive) | > 100 µM (inactive) | > 100 µM (inactive) | – | 66.4 µM (inactive) | 6.59 µM (inactive) | 50.8 µM (inactive) | 32.8 µM (inactive) | > 100 µM (inactive) | > 100 µM (inactive) | > 100 µM (inactive) | – | – | – | > 100 µM (inactive) | 28.4 µM (inactive) | 29.6 µM (inactive) | > 100 µM (inactive)
COc1cc(/C=C/c2ccc(OC)c(O)c2)cc(OC)c1 | 1.69 µM (inactive) | 3.65 µM (inactive) | 5.92 µM (inactive) | 7.71 µM (inactive) | 8.55 µM (inactive) | 3.35 µM (inactive) | 2.19 µM (inactive) | 6.08 µM (inactive) | 9.66 µM (inactive) | 4.82 µM (inactive) | 8.51 µM (inactive) | 29.4 µM (inactive) | 14.3 µM (inactive) | 25.5 µM (inactive) | 12.4 µM (inactive) | 4.18 µM (inactive) | – | 16.7 µM (inactive)
CCO/C([O-])=C(\C(=O)c1ccc([N+](=O)[O-])cc1)[n+]1c(C)n(C)c2ccccc21 | > 100 µM (inactive) | > 100 µM (inactive) | > 100 µM (inactive) | – | > 100 µM (inactive) | > 100 µM (inactive) | > 100 µM (inactive) | > 100 µM (inactive) | > 100 µM (inactive) | > 100 µM (inactive) | – | > 100 µM (inactive) | > 100 µM (inactive) | > 100 µM (inactive) | > 100 µM (inactive) | > 100 µM (inactive) | – | > 100 µM (inactive)
N#Cc1c(C[n+]2ccccc2)c2ccccc2oc1=O | > 100 µM (inactive) | > 100 µM (inactive) | > 100 µM (inactive) | – | > 100 µM (inactive) | > 100 µM (inactive) | > 100 µM (inactive) | > 100 µM (inactive) | > 100 µM (inactive) | > 100 µM (inactive) | > 100 µM (inactive) | – | 22.7 µM (inactive) | > 100 µM (inactive) | > 100 µM (inactive) | > 100 µM (inactive) | > 100 µM (inactive) | > 100 µM (inactive)
Cc1cc2nc3c(C(OC4OC(CO)C(O)C(O)C4O)C(O)CO)nn(-c4ccc(F)cc4)c3nc2cc1C (centres undefined) | > 100 µM (inactive) | > 100 µM (inactive) | > 100 µM (inactive) | – | > 100 µM (inactive) | > 100 µM (inactive) | > 100 µM (inactive) | > 100 µM (inactive) | > 100 µM (inactive) | – | > 100 µM (inactive) | > 100 µM (inactive) | > 100 µM (inactive) | – | > 100 µM (inactive) | – | > 100 µM (inactive) | > 100 µM (inactive)
CCOC(=O)C(=O)Nc1c(C)cccc1C | – | > 100 µM (inactive) | > 100 µM (inactive) | > 100 µM (inactive) | > 100 µM (inactive) | – | > 100 µM (inactive) | > 100 µM (inactive) | > 100 µM (inactive) | > 100 µM (inactive) | > 100 µM (inactive) | – | > 100 µM (inactive) | > 100 µM (inactive) | > 100 µM (inactive) | – | – | > 100 µM (inactive)
CC1=C(c2nc3ccccc3s2)C(=O)OC1(C)C | > 100 µM (inactive) | > 100 µM (inactive) | > 100 µM (inactive) | – | > 100 µM (inactive) | > 100 µM (inactive) | > 100 µM (inactive) | > 100 µM (inactive) | > 100 µM (inactive) | > 100 µM (inactive) | > 100 µM (inactive) | – | > 100 µM (inactive) | > 100 µM (inactive) | > 100 µM (inactive) | > 100 µM (inactive) | > 100 µM (inactive) | > 100 µM (inactive)
